Source: patent US20090012046A1, “Methods of Treating Mutated Hiv” (priority 2006, published 2009)
Values joined by “and” are separate entries in the source; they are usually repeats but may differ in a detail not shown here. Equal values may be shown once. Where a name gives a salt, the structure may show the parent alone.

Assays:
Assay type in all cases: cell-based
HIV-2 (ROD) = experiment: Susceptibility of HIV-2 strain
HIV-1 IIIB = experiment: In vitro selection of viral strains resistant to RT inhibitors in MT4-LTR-EGFP cells; settings: NcRTI-1: prolonged exposure (190 days)
Source text: To in vitro select viral strains resistant to RT inhibitors, MT4-LTR-EGFP cells were infected in the presence of the inhibitor (at 2 or 3 times EC50). Cultures were passaged every 3 to 4 days at the same concentration of inhibitor, until full virus breakthrough. At that time, virus was harvested and used for a new round of selection at a higher compound concentration. At each breakthrough, the harvested virus was genotyped to identify acquired mutations. For several RT inhibitors, alone or in combination, the mutations selected when replicating wild type HIV-1 (IIIB) in their presence, were determined (see Table 3).

[1] = test system: HIV-1 strain with RT mutation K065R; experiment: Susceptibility of site-directed mutant strain; settings: SDM strain K065R
Source text: (§1) Site-directed mutant RT coding sequences were generated from a pGEM vector containing the HIV-1 clone HXB2 protease and RT coding sequence by using a QuikChange™ site-directed mutagenesis kit, and HPLC-purified primers. Plasmids were sequenced to confirm that they contained the desired mutations. Mutant viruses were created by recombination of the mutant protease-RT sequence with a protease-RT deleted HIV-1 HXB2 proviral clone^2.

[2] = test system: HIV-1 strain with RT mutation K103N; experiment: Susceptibility of site-directed mutant strain; settings: SDM strain K103N
Source text: as §1

[3] = test system: HIV-1 strain with RT mutation M184V; experiment: Susceptibility of site-directed mutant strain; settings: SDM strain M184V
Source text: as §1

[4] = test system: HIV-1 strain with RT mutation Y115F; experiment: Susceptibility of site-directed mutant strain; settings: SDM strain Y115F
Source text: as §1

[5] = test system: HIV-1 strain with RT mutation Y181C; experiment: Susceptibility of site-directed mutant strain; settings: SDM strain Y181C
Source text: as §1

[6] = test system: HIV-1 strain with RT mutation Y188L; experiment: Susceptibility of site-directed mutant strain; settings: SDM strain Y188L
Source text: as §1

[7] = test system: HIV-1 strain with RT mutations A62V V75I F77L F116Y Q151M; experiment: Susceptibility of site-directed mutant strain; settings: SDM strain A62V V75I F77L F116Y Q151M
Source text: as §1

[8] = test system: HIV-1 strain with RT mutations F227C L234I; experiment: Susceptibility of site-directed mutant strain; settings: SDM strain F227C L234I
Source text: as §1

[9] = test system: HIV-1 strain with RT mutations K065R M184V; experiment: Susceptibility of site-directed mutant strain; settings: SDM strain K065R M184V
Source text: as §1

[10] = test system: HIV-1 strain with RT mutations K101E K103N; experiment: Susceptibility of site-directed mutant strain; settings: SDM strain K101E K103N
Source text: as §1

[11] = test system: HIV-1 strain with RT mutations K103N Y181C; experiment: Susceptibility of site-directed mutant strain; settings: SDM strain K103N Y181C
Source text: as §1

[12] = test system: HIV-1 strain with RT mutations L100I K103N E138G V179I Y181C; experiment: Susceptibility of site-directed mutant strain; settings: SDM strain L100I K103N E138G V179I Y181C
Source text: as §1

[13] = test system: HIV-1 strain with RT mutations L100I K103N; experiment: Susceptibility of site-directed mutant strain; settings: SDM strain L100I K103N
Source text: as §1

[14] = test system: HIV-1 strain with RT mutations M041L D067N K070R T215Y; experiment: Susceptibility of site-directed mutant strain; settings: SDM strain M041L D067N K070R T215Y
Source text: as §1

[15] = test system: HIV-1 strain with RT mutations T069S ins069-070S-S L210W T215Y; experiment: Susceptibility of site-directed mutant strain; settings: SDM strain T069S ins069-070S-S L210W T215Y
Source text: as §1

[16] = test system: HIV-1 strain with RT mutations Y115F M184V; experiment: Susceptibility of site-directed mutant strain; settings: SDM strain Y115F M184V
Source text: as §1

clinical HIV-1 isolates = experiment: Susceptibility of recombinant clinical HIV-1 isolates to RT inhibitors (fold change in EC50)
Method: The susceptibility of over 6000 recent clinical HIV-1 isolates for NcRTI-1 and different N(t)RTIs and NNRTIs was assessed.
Recombinant HIV-1 viruses, derived from clinical samples, were constructed by cotransfection of MT4 cells with sample derived viral protease and RT coding sequences and an HIV-1 HXB2-derived proviral clone deleted in the protease and RT coding region^2.

[17] = over 6000 recent clinical HIV-1 isolates

SMILES | Fold change (HIV-2 (ROD)) | selection of the K65R mutation when combined with TDF (HIV-1 IIIB) | Fold change [1] | Fold change [2] | Fold change [3] | Fold change [4] | Fold change [5] | Fold change [6] | Fold change [7] | Fold change [8] | Fold change [9] | Fold change [10] | Fold change [11] | Fold change [12] | Fold change [13] | Fold change [14] | Fold change [15] | Fold change [16] | further results
Cc1cn([C@H]2C[C@H](N=[N+]=[N-])[C@@H](CO)O2)c(=O)[nH]c1=O [ZDV, zidovudine] | 0.1 | – | – | – | – | – | – | – | – | – | – | – | – | – | – | – | – | – | –
Nc1nc(=O)n([C@@H]2CS[C@H](CO)O2)cc1F [FTC, emtricitabine] | – | the K65R mutation was selected | – | – | – | – | – | – | – | – | – | – | – | – | – | – | – | – | –
CC(C)OC(=O)OCOP(=O)(CO[C@H](C)Cn1cnc2c(N)ncnc21)OCOC(=O)OC(C)C [TDF, tenofovir disoproxil fumarate] | 1.0 | – | 6.0 | 0.6 | 0.8 | 1.0 | 0.7 | 0.7 | 3.7 | 0.6 | 2.3 | 0.5 | 0.5 | 0.4 | 0.3 | 3.3 | 2.3 | 0.9 | –
Cc1ccnc2c1NC(=O)c1cccnc1N2C1CC1 [NVP, nevirapine] | >100 | – | 3.4 | 50 | 2.3 | 2.9 | >100 | >100 | – | 31 | 1.2 | >100 | >100 | >100 | >100 | 2.8 | 1.1 | 2.3 | –
Cn1c2ccccc2c2c1cc(C#N)c(=O)n2-c1ccc([N+](=O)[O-])cc1 [NcRTI-1, 5-Methyl-1-(4-nitro-phenyl)-2-oxo-2,5-dihydro-1H-pyrido[3,2-b]indole-3-carbonitrile] | 14 | did not result in selection of the K65R mutation | 0.46 and 0.5 | 1.9 | 5.0 | 7.9 | 2.3 | 1.7 | 1.0 | 2.0 | 0.89 and 0.9 | 2.1 | 2.1 | 2.5 | 2.6 | 3.8 | 0.9 | 75 | effect of NNRTI resistance mutations and N(t)RTI multi-drug resistant patterns (TAMs, T69 insertion complex, Q151M complex) on activity (clinical HIV-1 isolates): not affected; cross-resistance with the NNRTIs EFV or NVP and the N(t)RTIs ZDV, TDF, ABC (clinical HIV-1 isolates; clinical HIV-1 isolates): No cross-resistance was observed; effect of the K65R mutation on susceptibility (clinical HIV-1 isolates; clinical isolates with K65R): hypersusceptibility; FC (fold change in EC50) (clinical HIV-1 isolates; clinical isolates with combination of mutations M184V+Y115F, random set of more than 1700 isolates): 75; profiled clinical isolates showing resistance (FC>10) (clinical HIV-1 isolates; [17]): 2.3%; profiled clinical isolates that remained susceptible (fold change in EC50 (FC)<4) (clinical HIV-1 isolates; [17]): 82%; profiled clinical isolates with reduced susceptibility (FC4-10) (clinical HIV-1 isolates; [17]): 15.7%
Nc1ccn([C@@H]2CS[C@H](CO)O2)c(=O)n1 [3TC, lamivudine] | 0.6 | – | >20 | 1.1 | >100 | 0.7 | 1.1 | 1.9 | – | 1.1 | >100 | 1.3 | 0.9 | 0.7 | 0.5 | 8.1 | 9.5 | >100 | –
